Patent US7452865B2, “Antagonistic analogs of GH RH (2003)” (The Administrare's of the Tulane Educational Fund, priority 2004, dated 2008)
Marks after values point to notes of the source that are not given here. Square brackets hold non-standard residues; d marks the D form. Peptide text beside a SMILES is read from it. * marks the point of attachment. Phe(4-Cl) = N[C@@H](Cc1ccc(Cl)cc1)C(=O)O; Dip = N[C@H](C(=O)O)C(c1ccccc1)c1ccccc1; hArg = N=C(N)NCCCC[C@H](N)C(=O)O; Cit = NC(=O)NCCC[C@H](N)C(=O)O; Nle = CCCC[C@H](N)C(=O)O; Octanoyl = CCCCCCCC(=O)*; Abu = CC[C@H](N)C(=O)O; PhAc = O=C(Cc1ccccc1)*

Experiments:
[1] = tested on: GH-RH receptor isoforms on membrane fractions of human PC-3 prostate tumors; assay type: binding; conditions: for binding affinities to the tumoral receptors for GH-RH (in words): general statement
Source text: Ligand competition assays with ^125I-labeled GH-RH antagonist JV-1-42 were used to determine the binding affinities of GH-RH analogs to the GH-RH receptor isoforms on membrane fractions of human PC-3 prostate tumors. The methods used have been described in detail (Halmos G, Schally A V, Varga J L, Plonowski A, Rekasi Z, Czompoly T, Proc Natl Acad Sci USA 97: 10555-10560, 2000; Halmos G, Schally A V, Czompoly T, Krupa M, Varga J L, Rekasi Z, J Clin Endocrinol Metab 87: 4707-4714, 2002), hereby incorporated by reference. Briefly, radioiodinated derivatives of JV-142 are prepared by the chloramine-T method. PC-3 tumors, grown as xenografts in nude mice, are used to prepare crude membranes. PC-3 membrane homogenates are incubated with [^125I]JV-142 and increasing concentrations (10^−12 to 10^−6 M) of nonradioactive antagonist peptides as competitors. The pellet is separated by centrifugation and counted for radioactivity in a gamma-counter. The final binding affinities are estimated by K1 (dissociation constant of the inhibitor-receptor complex) and are determined by the Ligand PC and McPherson computer programs of Munson and Rodbard (P. J. Munson and D. Rodbard, Anal. Biochem. […]: 220-239, 1980). Relative affinities (R.A.) compared to reference peptides such as JV-1-36 or JV-1-38, are calculated as the ratio of K1 of the reference peptide to the K, of the tested GH-RH antagonist.

[2] = tested on: PC-3 human prostate cancer xenografts; test: PC-3 xenografts in nude mice, Experiment 3: tumor growth; assay type: in vivo; conditions: for antitumor effect on PC-3 tumors (in words): 10 μg/day; for Tumor volume (mm^3) Final / Tumor volume doubling time / Tumor weight / Tumor volume Final (% inhibition) / Tumor weight (% inhibition): 10 μg/day s.c., 28 days; for Tumor volume Final (% inhibition) / Tumor weight (% inhibition): vs control; for Tumor volume (mm^3) Initial: at start of treatment
Procedure: Male nude mice were implanted s.c. with 3 mm^3 pieces of PC-3 human hormone-independent prostate cancer tissue on both flanks. When tumors reached a volume of approximately 65 mm^3, the mice were divided into 7 experimental groups with 8 to 9 animals in each group and received single daily injections for 28 days as follows: 1. Control (vehicle solution); 2. JV-1-38 (10 μg/day s.c.); 3. Peptide 35 (10 μg/day s.c.); 4. Peptide 36 (10 μg/day s.c.); 5. Peptide 37 (10 μd/day s.c.); 6. Peptide 39 (10 μg/day s.c.); 7. Peptide 41 (10 μg/day s.c.). Tumor volumes were measured twice a week. The experiment was ended on day 28 by sacrificing the mice under Isofurane anesthesia. Resulting tumors were cleaned, weighed, and snapfrozen until further analyses. Trunk blood was collected from the abdominal aorta and serum was separated for RIA measurement of IGF-I. Statistical analyses of the measurement results were done by ANOVA followed by Fisher test; data are presented as the means±S.E.

[3] = tested on: hGH-RH(1-29)NH2 induced GH release; test: Inhibition of GH release in superfused rat pituitary system; assay type: cell-based; conditions: for GH response (% of control) 0 min / GH response (% of control) 30 min / GH response (% of control) 60 min / GH response (% of control) 90 min / GH response (% of control) 120 min: antagonist 30 nM; for GH response (% of control) 0 min: 1 nM hGH-RH(1-29)NH2 at 0 min; for GH response (% of control) 30 min: 1 nM hGH-RH(1-29)NH2 at 30 min; for GH response (% of control) 60 min: 1 nM hGH-RH(1-29)NH2 at 60 min; for GH response (% of control) 90 min: 1 nM hGH-RH(1-29)NH2 at 90 min; for GH response (% of control) 120 min: 1 nM hGH-RH(1-29)NH2 at 120 min; for endocrine antagonistic potency: inhibition of the GH release stimulated by hGH-RH(1-29)NH2 (in words): general statement, in vitro and in vivo
Outline: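 GH output was quantified by double-antibody RIA in superfusates of rat pituitary cells. Peptides were applied for 9 min at various concentrations before a 3-min 1 nM hGH-RH(1-29)NH2 pulse, with further pulses 30–120 min later; net integral responses given as percent of the original response.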

| Relative Affinities (R.A.) to membrane receptors on PC-3 human prostate cancers [1] | Molecule | binding affinities to the tumoral receptors for GH-RH (in words) [1] | antitumor effect on PC-3 tumors (in words) [2] | Tumor volume (mm^3) Final [2] | Tumor volume doubling time [2] | Tumor weight [2] | Tumor volume Final (% inhibition) [2] | Tumor weight (% inhibition) [2] | Tumor volume (mm^3) Initial [2] | GH response (% of control) 0 min [3] | GH response (% of control) 30 min [3] | GH response (% of control) 60 min [3] | GH response (% of control) 90 min [3] | GH response (% of control) 120 min [3] | endocrine antagonistic potency: inhibition of the GH release stimulated by hGH-RH(1-29)NH2 (in words) [3] |
| --- | --- | --- | --- | --- | --- | --- | --- | --- | --- | --- | --- | --- | --- | --- | --- |
| – | [PhAc-Tyr^1, D-Arg^2, Phe(pCl)^6, Har^9, Phe(pNO2)^10, Abu^15, Nle^27, D-Arg^28, Har^29]hGH-RH(1-29)NH2 [Peptide 39] | extremely high binding affinities | more potent antitumor effect than reference peptide JV-1-38 | 271 ± 109** mm^3 | 19.6 ± 2.10 days | 247 ± 55.4 mg | (66%) | (65%) | 66.7 ± 11.2 mm^3 | 63 % of control | 54 % of control | 36 % of control | 37 % of control | 36 % of control | – |
| – | CCCC[C@H](NC(=O)[C@@H](NC(=O)[C@H](CC(=O)O)NC(=O)[C@H](CCC(N)=O)NC(=O)[C@H](CC(C)C)NC(=O)[C@H](CC(C)C)NC(=O)[C@H](CCCCN)NC(=O)[C@H](CCCNC(=N)N)NC(=O)[C@H](C)NC(=O)[C@H](CO)NC(=O)[C@H](CC(C)C)NC(=O)[C@H](CCC(N)=O)NC(=O)[C@H](CC)NC(=O)[C@H](CC(C)C)NC(=O)[C@@H](NC(=O)[C@H](CCCCN)NC(=O)[C@H](CCCNC(=N)N)NC(=O)[C@H](Cc1ccc(OCC)cc1)NC(=O)[C@H](CCCCNC(=N)N)NC(=O)[C@H](CC(N)=O)NC(=O)[C@@H](NC(=O)[C@H](Cc1ccc(Cl)cc1)NC(=O)[C@@H](NC(=O)[C@H](C)NC(=O)[C@H](CC(=O)O)NC(=O)[C@@H](CCCNC(=N)N)NC(=O)[C@H](Cc1ccc(O)cc1)NC(=O)Cc1ccccc1)[C@@H](C)CC)[C@@H](C)O)C(C)C)[C@@H](C)CC)C(=O)N[C@H](CCCNC(=N)N)C(=O)N[C@@H](CCCCNC(=N)N)C(N)=O [Peptide 41, [PhAc-Tyr^1, D-Arg^2, Phe(pCl)^6, Har^9, Tyr(Et)^10, Abu^15, Nle^27, D-Arg^28, Har^29]hGH-RH(1-29)NH2] (PhAc-Y[dR]DAI[Phe(4-Cl)]TN[hArg]Y(Et)RKVL[Abu]QLSARKLLQDI[Nle][dR][hArg]-NH2) | extremely high binding affinities | – | 341 ± 107* mm^3 | 28.2 ± 9.85 days | 579 ± 188 mg | (54%) | (17%) | 66.7 ± 12.5 mm^3 | 47 % of control | 16 % of control | 14 % of control | 15 % of control | 16 % of control | high endocrine antagonistic potencies |
| – | CCCC[C@H](NC(=O)[C@@H](NC(=O)[C@H](CC(=O)O)NC(=O)[C@H](CCC(N)=O)NC(=O)[C@H](CC(C)C)NC(=O)[C@H](CC(C)C)NC(=O)[C@H](CCCCN)NC(=O)[C@H](CCCNC(=N)N)NC(=O)[C@H](C)NC(=O)[C@H](CO)NC(=O)[C@H](CC(C)C)NC(=O)[C@H](CCC(N)=O)NC(=O)[C@H](CC)NC(=O)[C@H](CC(C)C)NC(=O)[C@@H](NC(=O)[C@H](CCCCN)NC(=O)[C@H](CCCNC(=N)N)NC(=O)[C@@H](NC(=O)[C@H](CCCCNC(=N)N)NC(=O)[C@H](CC(N)=O)NC(=O)[C@@H](NC(=O)[C@H](Cc1ccc(Cl)cc1)NC(=O)[C@@H](NC(=O)[C@H](C)NC(=O)[C@H](CC(=O)O)NC(=O)[C@@H](CCCNC(=N)N)NC(=O)[C@H](Cc1ccc(O)cc1)NC(=O)Cc1ccccc1)[C@@H](C)CC)[C@@H](C)O)C(c1ccccc1)c1ccccc1)C(C)C)[C@@H](C)CC)C(=O)N[C@H](CCCNC(=N)N)C(=O)N[C@@H](CCCCNC(=N)N)C(N)=O [Peptide 36, [PhAc-Tyr^1, D-Arg^2, Phe(pCl)^6, Har^9, Dip^10, Abu^15, Nle^27, D-Arg^28, Har^29]hGH-RH(1-29)NH2] (PhAc-Y[dR]DAI[Phe(4-Cl)]TN[hArg][Dip]RKVL[Abu]QLSARKLLQDI[Nle][dR][hArg]-NH2) | extremely high binding affinities | more potent antitumor effect than reference peptide JV-1-38 | 214 ± 72.6** mm^3 | 18.7 ± 3.83 days | 361 ± 89.6 mg | (76%) | (48%) | 68.0 ± 11.7 mm^3 | 104 % of control | 90 % of control | 112 % of control | 97 % of control | 120 % of control | – |
| 53 | CCCCCCCC(=O)N[C@@H](Cc1ccc(O)cc1)C(=O)N[C@H](CCCNC(=N)N)C(=O)N[C@@H](CC(=O)O)C(=O)N[C@@H](C)C(=O)N[C@H](C(=O)N[C@@H](Cc1ccc(Cl)cc1)C(=O)N[C@H](C(=O)N[C@@H](CC(N)=O)C(=O)N[C@@H](CCCNC(=N)N)C(=O)N[C@@H](Cc1ccc(O)cc1)C(=O)N[C@@H](CCCNC(=N)N)C(=O)N[C@@H](CCCCN)C(=O)N[C@H](C(=O)N[C@@H](CC(C)C)C(=O)N[C@@H](CC)C(=O)N[C@@H](CCC(N)=O)C(=O)N[C@@H](CC(C)C)C(=O)N[C@@H](CO)C(=O)N[C@@H](C)C(=O)N[C@@H](CCCNC(=N)N)C(=O)N[C@@H](CCCCN)C(=O)N[C@@H](CC(C)C)C(=O)N[C@@H](CC(C)C)C(=O)N[C@@H](CCC(N)=O)C(=O)N[C@@H](CC(=O)O)C(=O)N[C@H](C(=O)N[C@@H](CCCC)C(=O)N[C@H](CCCNC(=N)N)C(=O)N[C@@H](CCCCNC(=N)N)C(N)=O)[C@@H](C)CC)C(C)C)[C@@H](C)O)[C@@H](C)CC [Peptide 4, [CH3(CH2)6CO-Tyr^1, D-Arg^2, Phe(pCl)^6, Arg^9, Abu^15, Nle^27, D-Arg^28, Har^29]hGH-RH(1-29)NH2] (Octanoyl-Y[dR]DAI[Phe(4-Cl)]TNRYRKVL[Abu]QLSARKLLQDI[Nle][dR][hArg]-NH2) | extremely high binding affinities | – | – | – | – | – | – | – | 5 % of control | 0 % of control | 12 % of control | 8 % of control | 18 % of control | high endocrine antagonistic potencies |
| – | CCCC[C@H](NC(=O)[C@@H](NC(=O)[C@H](CC(=O)O)NC(=O)[C@H](CCC(N)=O)NC(=O)[C@H](CC(C)C)NC(=O)[C@H](CC(C)C)NC(=O)[C@H](CCCCN)NC(=O)[C@H](CCCNC(=N)N)NC(=O)[C@H](C)NC(=O)[C@H](CO)NC(=O)[C@H](CC(C)C)NC(=O)[C@H](CCC(N)=O)NC(=O)[C@H](CC)NC(=O)[C@H](CC(C)C)NC(=O)[C@@H](NC(=O)[C@H](CCCCN)NC(=O)[C@H](CCCNC(=N)N)NC(=O)[C@H](Cc1ccc(O)cc1)NC(=O)[C@H](CCCNC(N)=O)NC(=O)[C@H](CCCNC(N)=O)NC(=O)[C@@H](NC(=O)[C@H](Cc1ccc(Cl)cc1)NC(=O)[C@@H](NC(=O)[C@H](C)NC(=O)[C@H](CC(=O)O)NC(=O)[C@@H](CCCNC(=N)N)NC(=O)[C@H](Cc1ccc(O)cc1)NC(=O)Cc1ccccc1)[C@@H](C)CC)[C@@H](C)O)C(C)C)[C@@H](C)CC)C(=O)N[C@H](CCCNC(=N)N)C(=O)N[C@@H](CCCCNC(=N)N)C(N)=O [Peptide 22, [PhAc-Tyr^1, D-Arg^2, Phe(pCl)^6, Cit^8, Cit^9, Abu^15, Nle^27, D-Arg^28, Har^29]hGH-RH(1-29)NH2] (PhAc-Y[dR]DAI[Phe(4-Cl)]T[Cit][Cit]YRKVL[Abu]QLSARKLLQDI[Nle][dR][hArg]-NH2) | extremely high binding affinities | – | – | – | – | – | – | – | 22 % of control | 26 % of control | 27 % of control | 45 % of control | – | – |
